The values below are quoted from earlier work in patent publication US7589170B1, “Synthesis of cyclic peptides” (priority 1998, dated 2009).

The conditions of this data set: as originally found for the isolate from Stylotella aurantium; cited from earlier work.

Regarding `CCC(C)[C@@H]1NC(=O)[C@H](C)NC(=O)C(CC(C)C)NC(=O)[C@H](CO)NC(=O)C(CC(N)=O)NC(=O)[C@H](Cc2ccccc2)NC(=O)[C@@H]2CCCN2C1=O` (stereo in doubt) [stylostatin, Cyclo-(Pro-Phe-Asn-Ser-Leu-Ala-Ile)], the cytotoxicity entry is given as “highly cytotoxic”.
